Patent US8586618B2, “Furanone compounds and lactam analogues thereof” (Biosignal Limited, priority 2006, dated 2013)
Each block holds one compound with its values, some of them ahead of it.

How the values were obtained:
[1] = system: LasR quorum sensing system; assay: LasR assay (unstable gfp fused to elastase promoter); assay type: cell-based, Pseudomonas aeruginosa; conditions: for inhibition at 50 µg/mL / inhibition at 100 µg/mL / inhibition at 25 µg/mL: Pseudomonas aeruginosa; for inhibition at 50 µg/mL: read-out: LasR % inhibition at 50 μg/ml; for LasR % inhibition at 100 μg/ml: 100 μg/ml compound; for inhibition at 100 µg/mL: read-out: LasR % inhibition at 100 μg/ml; for inhibition at 25 µg/mL: read-out: LasR (% inhibition at 25 ug/ml compound)
Protocol: Compounds of the present invention were also assayed using a LasR assay. The LasR assay provides a measurement of quorum sensing inhibition activity. […] In the LasR assay, an unstable gfp has been fused to the elastase promoter, so that the amount of Gfp is regulated by the QS system. The plasmid is put into Pseudomonas aeruginosa which makes its own AHL signals. The assay is performed by adding the compounds to be tested to the system at the beginning of the experiment, at different concentrations. Gfp expression is measured at different times during growth, ending at the 24 h time point. The percentage fluorescence was determined at the time point when the fluorescence reached its maximum in the control, usually around 11-12 h after inoculation.

E. coli biofilm = assay: Inhibition of biofilm formation, Petri dish model, E. coli; assay type: cell-based; conditions: 48 h exposure
Protocol: (§1) Compounds were run in a Petri dish model—where the cells of E. coli or Pseudomonas aeruginosa were exposed to the compound for 48 h. The amount of biofilm was determined by combining image data of the XY (surface cover in one plane) and XZ (depth). The controls gave good biofilm cover and some structure formation.

[2] = system: V. fischeri luxRI system (AHL quorum sensing, gfp fused to luxI promoter); assay: N-acylated homoserine lactone (AHL) quorum sensing assay, GFP reporter strain; assay type: cell-based, E. coli; conditions: for ID40 at 3 nM OHHL: value in brackets; for AIC40: inhibition index: slope of ID40 vs AHL concentration, lower is better
Protocol: Compounds of the present invention were compared to compounds of the prior art in order using an AHL-quorum sensing assay which utilises a reporter strain that expresses Green Fluorescent Protein (GFP) in the presence of AHL signals. The assay is performed by measuring GFP output in the presence of the compound to be measured and comparing the output to a control. By using multiple samples at varying concentrations of compound and AHL, an inhibition index of compound activity can be generated. The inhibition index used in the present example is the relative amount of compound required to reduce GFP expression to 40% of the control. The inhibition index is termed AIC40. Lower values of AIC40 represent better inhibitors of the AHL quorum sensing system.
The reporter strain of bacterium used in this assay is E. coli into which the V. fischeri luxRI system has been engineered. A gfp gene is fused to the QS controlled luxI promoter as is described in (Andersen et al., 2001, and Andersen et al, 1998).
Measurement of AIC40 (ID40 at 3 nM OHHL)
Determination of the activity of compounds using the E. coli based luxRI construct was performed as follows.
In a 15 mL plastic tube, mix 3 mL of o.n. culture of the lux reporter strain with 12 mL fresh medium, incubate at 37° C. Label six tubes, 10, 20, two 50 and two 100. To each of the tubes, add OHHL (3-oxohexanoyl homoserine lactone) to a final concentration of 10, 20, 50, or 100 nM respectively in the AB medium (add enough medium to distribute across the appropriate number of wells). To the first row of the microplate (row A), add 200 ul of the OHHL/AB mixture. To the remaining rows (B-H) add 100 ul of the OHHL/AB mixture. To the first row (A) add compounds to be tested to the 200 ul mixture of OHHL/AB. Make a dilution series in the first 7 rows by transferring 100 μL from wells in row 1 to wells in row 2 and so on. Discard the remaining 100 μL from row 7. Add 100 μL diluted lux monitor to each well. Incubate the plate 2 hours at 37° C. and measure green fluorescence using the “Victor” plate reader.
Calculate ID40 for each column. To do this, calculate the relative activity in each well. […] Make a plot for each concentration of OHHL vs. the range of compound concentrations used. Calculate the amount of compound needed to lower the relative activity to 40%, this is termed inhibiting dose 40%, ID40. For each compound an inhibition index, AIC40, is found as follows: plot ID40 against its respective AHL concentration; AIC40 is the slope of the best straight line through the plotted points and origin.

[3] = system: Pseudomonas aeruginosa biofilm; assay: Inhibition of biofilm formation, Petri dish model, Pseudomonas aeruginosa; assay type: cell-based; conditions: 10 μg/mL, 48 h exposure
Protocol: as §1

[4] = amount lowering GFP activity to 40%

Compound: Cn1cc(C2=CC(=O)OC2)cn1 [Compound 12, 4-(N-Methylpyrazol-4′-yl)furan-2(5H)-one]
inhibition at 50 µg/mL [1]: 22.9%
melting point: 181 to 182 °C

Compound: (Z)-5-(4-(trifluoromethyl)benzylidene)furan-2(5H)-one [Compound 29]
LasR (% inhibition at 25 ug/ml compound) [1]: 15.8%
LasR % inhibition at 100 μg/ml [1]: 38.4%

Compound: CC1OC(=O)C=C1c1ccccc1 (centres unmarked) [Compound 27, 5-methyl-4-phenyl-2(5H)furanone]
inhibition at 100 µg/mL [1]: 57%
inhibition at 25 µg/mL [1]: 9%

Compound: (Z)-5-(4-fluorobenzylidene)furan-2(5H)-one [Compound 28]
LasR (% inhibition at 25 ug/ml compound) [1]: 13%
LasR % inhibition at 100 μg/ml [1]: 53%

melting point: 49 to 50 °C
Compound: O=C1C=C(c2ccccc2C(F)(F)F)CO1 [Compound 9, 4-(2′-Trifluoromethylphenyl)furan-2(5H)-one]

Compound: O=C1C=C(c2cccs2)CO1 [Compound 6, 4-(Thiophen-2′-yl)furan-2(5H)-one]
inhibition at 25 µg/mL [1]: 10%
% biofilm (E. coli biofilm; 25 μg/mL): 87.7%
% biofilm (E. coli biofilm; 40 μg/mL): 97%
ID40 at 3 nM OHHL [2, 4]: 58.7
AIC40 [2]: 24.6
melting point: 94 to 96.5 °C
% biofilm [3]: 77%

Compound: O=C1C=C(c2ccc(OC(F)(F)F)cc2)CO1 [Compound 5, 4-(4′-Trifluoromethoxyphenyl)furan-2(5H)-one]
inhibition at 50 µg/mL [1]: 43.2%
inhibition at 25 µg/mL [1]: 19.3%
ID40 at 3 nM OHHL [2, 4]: 11.37
AIC40 [2]: 5.9
melting point: 122 to 123 °C

melting point: 127.5 to 129 °C
Compound: O=C1C=C(c2ccc(C(F)(F)F)cc2)/C(=C/c2ccc(C(F)(F)F)cc2)O1 [Compound 17, (Z)-4-(4′-(trifluoromethyl)phenyl)-5-(4″-(trifluoromethyl)benzylidene)furan-2(5H)-one]

Compound: O=C1C=C(c2ccc(F)cc2)CO1 [Compound 2, 4-(4′-Fluorophenyl)furan-2(5H)-one]
ID40 at 3 nM OHHL [2, 4]: 39.4
AIC40 [2]: 14.39

Compound: O=C1C=C(c2ccc(F)cc2F)CO1 [Compound 1, 4-(2′,4′-Difluorophenyl)furan-2(5H)-one]
ID40 at 3 nM OHHL [2, 4]: 17.83
AIC40 [2]: 7.6

Compound: O=C1C=C(Br)/C(=C/c2cccs2)O1 [Compound 26]
inhibition at 100 µg/mL [1]: 76%
inhibition at 25 µg/mL [1]: 30%

Compound: (Z)-4-(3′-(Trifluoromethyl)phenyl)-5-(3″-(trifluoromethyl)benzylidene)furan-2(5H)-one [Compound 23]
LasR (% inhibition at 25 ug/ml compound) [1]: 23%
LasR % inhibition at 100 μg/ml [1]: 46.4%
ID40 at 3 nM OHHL [2, 4]: 22.1
AIC40 [2]: 4.64

Compound: O=C1C=C(Br)/C(=C/c2ccsc2)O1 [Compound 25]
inhibition at 100 µg/mL [1]: 78%
inhibition at 25 µg/mL [1]: 20%

melting point: 72 to 74 °C
Compound: O=C1C=C(Br)CO1 [Compound 11, 4-Bromofuran-2(5H)-one]

Compound: O=C1C=C(c2ccc(C(F)(F)F)cc2)CO1 [Compound 3, 4-(4′-Trifluoromethylphenyl)furan-2(5H)-one]
inhibition at 25 µg/mL [1]: 22%
ID40 at 3 nM OHHL [2, 4]: 4.37
AIC40 [2]: 0.77

Compound: O=C1C=C(c2ccc(OC(F)(F)F)cc2)/C(=C/c2ccc(OC(F)(F)F)cc2)O1 [Compound 21, (Z)-4-(4′-(Trifluoromethoxy)phenyl)-5-(4″-(trifluoromethoxy)benzylidene)furan-2(5H)-one]
inhibition at 100 µg/mL [1]: 47%
inhibition at 25 µg/mL [1]: 14.7%
ID40 at 3 nM OHHL [2, 4]: 148
AIC40 [2]: 4.4

Compound: O=C1C=C(c2ccsc2)CO1 [Compound 14, 4-(Thiophen-3′-yl)furan-2(5H)-one]
inhibition at 25 µg/mL [1]: 15%
ID40 at 3 nM OHHL [2]: 60 µM
AIC40 [2]: 4.9
melting point: 130.5 to 132 °C

melting point: 190 °C
Compound: O=C1C=C(c2ccc(F)cc2)CN1 [Compound 36, 4-(4′-Fluorophenyl)-1H-pyrrol-2(5H)one]

melting point: 108 to 110 °C
Compound: O=C1C=C(c2ccccc2)/C(=C/c2cccc(C(F)(F)F)c2)O1 [Compound 13]

melting point: 116 to 117 °C
Compound: O=C1C=C(c2ccc(C(F)(F)F)cc2C(F)(F)F)CO1 [Compound 15, 4-(2′,4′-Bis(trifluoromethyl)phenyl)furan-2(5H)-one]

Compound: O=C1C=C(c2cccc(C(F)(F)F)c2)CO1 [Compound 8, 4-(3′-Trifluoromethylphenyl)furan-2(5H)-one]
inhibition at 50 µg/mL [1]: 42.2%
inhibition at 25 µg/mL [1]: 22%
melting point: 124 to 125 °C

melting point: 233 to 235 °C (dec.)
Compound: O=C1C=C(c2ccc(Br)cc2)CN1 [Compound 35, 4-(4′-Bromophenyl)-pyrrol-2(5H)-one]

melting point: 101 to 103 °C
Compound: Cc1noc(C)c1C1=CC(=O)OC1 [Compound 7, 4-(3′,5′-Dimethylisoxazol-4′-yl)furan-2(5H)-one]

Compound: O=C1C=C(c2cccc(C(F)(F)F)c2)/C(=C/c2cccc(C(F)(F)F)c2)O1 [Compound 24]
inhibition at 100 µg/mL [1]: 35%
inhibition at 25 µg/mL [1]: 19%
